Data on one compound can be found in PMC8002391, “A High-Throughput Screening System Based on Fluorescence-Activated Cell Sorting for the Directed Evolution of Chitinase A” (International Journal of Molecular Sciences, 2021).

Each structure is given as a SMILES string.

The test has as its target T1, ChiA (chitinase A) (Bacillus licheniformis, UniProt B7UB89).
T1 construct: synthetic chiA gene in pET22b(+), in frame with pelB signal for periplasmic expression in E. coli BL21 (DE3); whole cells assayed
The test is described as follows: fluorescence microtiter plate assay with whole E. coli cells expressing chiA (4MU release). Particulars: 0.1 M sodium acetate pH 6.0; 25 µL cells + 25 µL 0.5 mg/mL 4MUTC; empty-vector cells as control. The class given is cell-based.

T1 sequence (B7UB89 1-580): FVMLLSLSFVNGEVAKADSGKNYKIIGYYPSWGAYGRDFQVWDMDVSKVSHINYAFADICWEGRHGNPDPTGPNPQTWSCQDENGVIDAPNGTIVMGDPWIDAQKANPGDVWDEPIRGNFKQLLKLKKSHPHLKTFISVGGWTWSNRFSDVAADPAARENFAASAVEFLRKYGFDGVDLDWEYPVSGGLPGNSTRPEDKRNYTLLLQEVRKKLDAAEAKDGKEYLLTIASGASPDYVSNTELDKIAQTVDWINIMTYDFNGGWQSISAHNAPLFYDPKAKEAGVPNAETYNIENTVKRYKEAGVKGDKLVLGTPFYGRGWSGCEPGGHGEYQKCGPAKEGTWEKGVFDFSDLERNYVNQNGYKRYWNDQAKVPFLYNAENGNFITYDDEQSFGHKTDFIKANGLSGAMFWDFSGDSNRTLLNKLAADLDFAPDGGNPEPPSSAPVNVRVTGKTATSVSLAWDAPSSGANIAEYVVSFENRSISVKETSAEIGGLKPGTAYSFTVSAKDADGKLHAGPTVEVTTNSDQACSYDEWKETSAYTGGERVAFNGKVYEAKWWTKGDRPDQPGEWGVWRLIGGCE

In the case of `CC(=O)N[C@H]1[C@H](Oc2ccc3c(C)cc(=O)oc3c2)O[C@H](CO)[C@@H](O[C@@H]2O[C@H](CO)[C@@H](O[C@@H]3O[C@H](CO)[C@@H](O)[C@H](O)[C@H]3NC(C)=O)[C@H](O)[C@H]2NC(C)=O)[C@@H]1O` [4-methylumbelliferyl β-D-N,N′,N″-triacetyl chitotrioside], the “fluorescence microtiter plate assay with whole E. coli cells expressing chiA (4M)” value was “comparing E. coli cells expressing chiA to those transformed with the empty vector”.
